Article PMC10531071, “Furmonertinib, a Third-Generation EGFR Tyrosine Kinase Inhibitor, Overcomes Multidrug Resistance through Inhibiting ABCB1 and ABCG2 in Cancer Cells” (International Journal of Molecular Sciences, 2023)

How the values were obtained:
[1] = target: ABCB1 (P-glycoprotein; MDR1) (Homo sapiens, UniProt P08183); assay: vanadate-sensitive ATPase stimulation in High-Five insect cell membrane vesicles; also calcein-AM efflux inhibition in MDR19-HEK293 cells (IC50 […]); format: biochemical
ABCG2 (BCRP; MXR; ABCP) = target: T1, ABCG2 (BCRP; MXR; ABCP) (Homo sapiens, UniProt Q9UNQ0); assay: vanadate-sensitive ATPase stimulation in High-Five insect cell membrane vesicles; also PhA efflux inhibition in R482-HEK293 cells (IC50 […]); format: biochemical
T1 sequence (Q9UNQ0 1-655): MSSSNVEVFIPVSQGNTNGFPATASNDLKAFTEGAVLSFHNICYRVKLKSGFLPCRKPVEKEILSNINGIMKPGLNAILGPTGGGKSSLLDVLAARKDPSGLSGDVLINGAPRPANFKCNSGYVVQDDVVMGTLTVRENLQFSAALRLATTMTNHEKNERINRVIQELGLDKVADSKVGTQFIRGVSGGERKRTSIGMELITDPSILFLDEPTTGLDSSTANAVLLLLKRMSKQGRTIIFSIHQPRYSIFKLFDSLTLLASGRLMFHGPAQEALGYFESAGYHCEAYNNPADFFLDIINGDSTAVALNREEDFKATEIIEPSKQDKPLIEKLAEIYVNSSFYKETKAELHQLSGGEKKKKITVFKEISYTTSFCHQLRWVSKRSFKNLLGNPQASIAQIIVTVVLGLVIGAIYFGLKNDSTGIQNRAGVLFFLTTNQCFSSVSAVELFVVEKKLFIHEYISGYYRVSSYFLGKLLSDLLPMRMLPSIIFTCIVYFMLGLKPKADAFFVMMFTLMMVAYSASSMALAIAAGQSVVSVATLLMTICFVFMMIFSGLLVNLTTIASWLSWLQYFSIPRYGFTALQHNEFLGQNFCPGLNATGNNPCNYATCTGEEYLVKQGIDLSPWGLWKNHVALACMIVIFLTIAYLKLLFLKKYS

Sequence of ABCB1 (P-glycoprotein; MDR1) (P08183 whole entry): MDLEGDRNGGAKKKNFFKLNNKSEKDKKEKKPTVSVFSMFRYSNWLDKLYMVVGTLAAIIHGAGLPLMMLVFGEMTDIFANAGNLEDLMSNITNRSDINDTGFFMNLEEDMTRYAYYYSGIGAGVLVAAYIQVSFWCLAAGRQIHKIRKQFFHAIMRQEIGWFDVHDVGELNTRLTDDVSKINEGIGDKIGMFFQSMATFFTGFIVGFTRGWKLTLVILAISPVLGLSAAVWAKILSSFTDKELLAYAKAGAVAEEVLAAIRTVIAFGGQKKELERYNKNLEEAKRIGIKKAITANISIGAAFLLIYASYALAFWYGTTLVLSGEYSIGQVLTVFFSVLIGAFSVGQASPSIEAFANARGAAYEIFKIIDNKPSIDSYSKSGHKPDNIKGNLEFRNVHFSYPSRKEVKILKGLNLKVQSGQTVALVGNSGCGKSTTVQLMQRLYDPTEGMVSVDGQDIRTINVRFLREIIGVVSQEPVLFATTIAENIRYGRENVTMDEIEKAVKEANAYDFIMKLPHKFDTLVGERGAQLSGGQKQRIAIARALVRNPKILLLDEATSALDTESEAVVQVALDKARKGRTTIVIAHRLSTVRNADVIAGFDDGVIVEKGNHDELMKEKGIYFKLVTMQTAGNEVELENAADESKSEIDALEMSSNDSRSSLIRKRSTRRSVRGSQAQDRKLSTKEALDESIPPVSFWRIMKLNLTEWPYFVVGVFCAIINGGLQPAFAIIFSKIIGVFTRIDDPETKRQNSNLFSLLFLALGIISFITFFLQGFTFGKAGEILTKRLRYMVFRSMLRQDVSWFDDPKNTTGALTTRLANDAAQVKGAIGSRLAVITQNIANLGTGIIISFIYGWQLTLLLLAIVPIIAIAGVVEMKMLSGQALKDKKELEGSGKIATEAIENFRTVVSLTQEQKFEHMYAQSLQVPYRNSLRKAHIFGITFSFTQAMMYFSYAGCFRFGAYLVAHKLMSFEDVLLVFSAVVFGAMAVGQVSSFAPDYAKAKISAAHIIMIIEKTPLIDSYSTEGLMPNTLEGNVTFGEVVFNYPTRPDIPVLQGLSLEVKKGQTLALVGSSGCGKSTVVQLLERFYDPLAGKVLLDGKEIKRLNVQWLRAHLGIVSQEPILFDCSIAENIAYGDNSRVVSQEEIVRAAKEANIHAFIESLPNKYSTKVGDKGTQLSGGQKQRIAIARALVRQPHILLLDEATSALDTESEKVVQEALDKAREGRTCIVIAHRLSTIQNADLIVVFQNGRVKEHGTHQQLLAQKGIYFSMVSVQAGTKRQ

EC50 [1]: ~600 nM
EC50 (ABCG2 (BCRP; MXR; ABCP)): ~3 nM
SMILES: C=CC(=O)Nc1cc(Nc2nccc(-c3cn(C)c4ccccc34)n2)c(OCC(F)(F)F)nc1N(C)CCN(C)C [furmonertinib]
